From publication PMC9329436, “Optimization of the 4-anilinoquin(az)oline scaffold as epidermal growth factor receptor (EGFR) inhibitors for chordoma utilizing a toxicology profiling assay platform” (Scientific Reports, 2022)
Read-outs that look alike come from different tables or passages of the source.

Columns and labels:
Assay type in all cases: biochemical
[1] = target: 320 wild-type protein kinases (Homo sapiens, UniProt Q9H0K1); settings: kinase SIK2, singlicate
From the text: (§1) Table S4. Profiling of two compounds at two concentrations against 320 wild-type protein kinases; singlicate measurement; Residual activities (% of control).

[2] = target: T1, 320 wild-type protein kinases (Homo sapiens, UniProt Q9UL54); settings: kinase TAOK2, singlicate
T1 sequence (Q9UL54 1-1235): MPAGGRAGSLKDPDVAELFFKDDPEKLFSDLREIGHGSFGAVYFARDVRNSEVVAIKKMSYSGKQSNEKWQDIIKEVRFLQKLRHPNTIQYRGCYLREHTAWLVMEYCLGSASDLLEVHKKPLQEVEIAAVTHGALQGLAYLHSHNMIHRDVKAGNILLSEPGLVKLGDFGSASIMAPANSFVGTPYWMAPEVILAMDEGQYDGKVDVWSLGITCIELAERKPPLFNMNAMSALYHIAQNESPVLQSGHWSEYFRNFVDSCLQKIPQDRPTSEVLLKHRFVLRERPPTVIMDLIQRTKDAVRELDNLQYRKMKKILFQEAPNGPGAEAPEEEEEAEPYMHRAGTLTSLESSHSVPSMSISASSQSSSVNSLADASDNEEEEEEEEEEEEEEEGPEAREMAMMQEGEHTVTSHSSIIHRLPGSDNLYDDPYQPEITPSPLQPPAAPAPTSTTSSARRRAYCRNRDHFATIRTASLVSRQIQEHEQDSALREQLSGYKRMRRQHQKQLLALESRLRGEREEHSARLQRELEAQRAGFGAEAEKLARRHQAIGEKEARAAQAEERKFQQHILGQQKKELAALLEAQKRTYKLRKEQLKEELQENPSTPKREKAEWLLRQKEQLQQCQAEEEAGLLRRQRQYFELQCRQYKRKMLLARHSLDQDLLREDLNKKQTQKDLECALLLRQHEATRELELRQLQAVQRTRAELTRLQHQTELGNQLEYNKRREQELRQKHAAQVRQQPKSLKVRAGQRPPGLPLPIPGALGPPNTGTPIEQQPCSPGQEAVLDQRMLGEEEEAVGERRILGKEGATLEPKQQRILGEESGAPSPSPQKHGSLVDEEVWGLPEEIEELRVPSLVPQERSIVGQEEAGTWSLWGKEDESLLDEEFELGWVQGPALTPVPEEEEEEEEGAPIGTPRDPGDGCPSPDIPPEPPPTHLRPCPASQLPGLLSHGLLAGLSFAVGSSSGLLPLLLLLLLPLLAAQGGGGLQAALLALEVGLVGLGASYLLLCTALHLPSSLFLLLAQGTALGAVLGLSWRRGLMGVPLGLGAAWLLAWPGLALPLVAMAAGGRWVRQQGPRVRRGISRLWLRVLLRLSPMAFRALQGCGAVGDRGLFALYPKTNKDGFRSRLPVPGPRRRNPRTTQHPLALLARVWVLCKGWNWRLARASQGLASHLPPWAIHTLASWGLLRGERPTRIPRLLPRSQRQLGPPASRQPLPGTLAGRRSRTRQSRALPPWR
From the text: as §1

[3] = target: 320 wild-type protein kinases (Homo sapiens, UniProt Q9Y6E0); settings: singlicate
Sequence of 320 wild-type protein kinases (Homo sapiens, UniProt Q9Y6E0) (Q9Y6E0 whole entry): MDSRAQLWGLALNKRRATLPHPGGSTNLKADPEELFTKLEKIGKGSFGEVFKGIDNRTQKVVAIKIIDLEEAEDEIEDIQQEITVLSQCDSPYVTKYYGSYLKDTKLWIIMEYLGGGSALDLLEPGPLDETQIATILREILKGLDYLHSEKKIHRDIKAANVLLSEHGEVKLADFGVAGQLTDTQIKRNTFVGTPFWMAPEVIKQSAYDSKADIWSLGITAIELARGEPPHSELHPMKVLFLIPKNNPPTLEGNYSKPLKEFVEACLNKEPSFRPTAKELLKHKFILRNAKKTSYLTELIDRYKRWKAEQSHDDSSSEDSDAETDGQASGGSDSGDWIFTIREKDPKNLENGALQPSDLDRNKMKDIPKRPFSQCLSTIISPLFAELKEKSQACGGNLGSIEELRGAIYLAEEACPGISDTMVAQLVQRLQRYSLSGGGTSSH
From the text: as §1

[4] = target: 320 wild-type protein kinases (Homo sapiens, UniProt Q13153); settings: singlicate
From the text: as §1

[5] = target: 320 wild-type protein kinases (Homo sapiens, UniProt Q9UK32); settings: kinase RPS6KA6, singlicate
Sequence of 320 wild-type protein kinases (Homo sapiens, UniProt Q9UK32) (Q9UK32 whole entry): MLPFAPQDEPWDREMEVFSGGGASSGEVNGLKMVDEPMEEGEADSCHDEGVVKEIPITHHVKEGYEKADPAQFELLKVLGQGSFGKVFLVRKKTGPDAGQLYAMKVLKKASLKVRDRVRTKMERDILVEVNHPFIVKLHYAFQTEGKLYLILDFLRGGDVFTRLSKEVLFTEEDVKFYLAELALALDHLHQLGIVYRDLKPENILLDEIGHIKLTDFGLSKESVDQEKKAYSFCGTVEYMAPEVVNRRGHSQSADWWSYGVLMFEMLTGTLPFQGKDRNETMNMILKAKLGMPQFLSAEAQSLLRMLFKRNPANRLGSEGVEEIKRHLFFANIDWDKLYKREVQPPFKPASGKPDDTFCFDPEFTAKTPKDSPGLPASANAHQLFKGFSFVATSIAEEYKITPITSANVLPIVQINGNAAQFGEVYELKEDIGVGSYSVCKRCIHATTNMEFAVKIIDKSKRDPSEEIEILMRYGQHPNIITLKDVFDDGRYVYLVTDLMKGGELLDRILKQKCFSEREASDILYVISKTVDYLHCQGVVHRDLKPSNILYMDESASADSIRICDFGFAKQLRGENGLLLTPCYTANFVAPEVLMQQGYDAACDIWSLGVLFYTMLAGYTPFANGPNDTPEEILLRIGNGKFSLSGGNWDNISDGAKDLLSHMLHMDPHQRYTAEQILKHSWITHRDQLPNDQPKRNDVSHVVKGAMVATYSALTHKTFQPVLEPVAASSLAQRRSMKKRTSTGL
From the text: as §1

[6] = target: 320 wild-type protein kinases (Homo sapiens, UniProt Q9BQI3); settings: HRI, singlicate
Sequence of 320 wild-type protein kinases (Homo sapiens, UniProt Q9BQI3) (Q9BQI3 whole entry): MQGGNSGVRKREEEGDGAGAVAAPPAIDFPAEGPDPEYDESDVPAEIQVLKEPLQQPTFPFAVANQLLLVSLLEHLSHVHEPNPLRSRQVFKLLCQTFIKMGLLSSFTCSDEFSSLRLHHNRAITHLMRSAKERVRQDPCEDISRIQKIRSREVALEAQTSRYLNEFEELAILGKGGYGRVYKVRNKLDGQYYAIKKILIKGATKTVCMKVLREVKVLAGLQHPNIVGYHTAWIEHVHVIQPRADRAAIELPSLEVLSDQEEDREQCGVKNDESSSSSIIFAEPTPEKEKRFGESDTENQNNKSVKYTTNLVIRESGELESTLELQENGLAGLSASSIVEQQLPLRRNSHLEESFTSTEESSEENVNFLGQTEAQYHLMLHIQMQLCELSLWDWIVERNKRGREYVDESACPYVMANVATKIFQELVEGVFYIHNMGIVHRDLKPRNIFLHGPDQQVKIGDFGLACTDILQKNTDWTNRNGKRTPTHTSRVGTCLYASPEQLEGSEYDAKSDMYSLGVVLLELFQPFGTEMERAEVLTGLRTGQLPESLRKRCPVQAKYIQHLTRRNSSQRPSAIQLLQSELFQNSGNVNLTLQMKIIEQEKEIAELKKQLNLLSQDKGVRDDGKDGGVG
From the text: as §1

[7] = target: 320 wild-type protein kinases (Homo sapiens, UniProt P49336); settings: CDK8/CycC, singlicate
Sequence of 320 wild-type protein kinases (Homo sapiens, UniProt P49336) (P49336 whole entry): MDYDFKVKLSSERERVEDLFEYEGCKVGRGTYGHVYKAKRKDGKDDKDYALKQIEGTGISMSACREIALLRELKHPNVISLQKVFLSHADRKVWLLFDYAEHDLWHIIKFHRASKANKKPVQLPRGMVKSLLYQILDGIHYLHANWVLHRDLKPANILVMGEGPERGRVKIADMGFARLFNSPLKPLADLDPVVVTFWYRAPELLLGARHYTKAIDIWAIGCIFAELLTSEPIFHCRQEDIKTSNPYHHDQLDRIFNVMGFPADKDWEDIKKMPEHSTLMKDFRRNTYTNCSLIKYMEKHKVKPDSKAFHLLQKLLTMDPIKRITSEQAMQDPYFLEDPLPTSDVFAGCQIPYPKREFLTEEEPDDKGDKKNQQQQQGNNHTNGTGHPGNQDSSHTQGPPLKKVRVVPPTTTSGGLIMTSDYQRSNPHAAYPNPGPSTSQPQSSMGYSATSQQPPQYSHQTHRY
From the text: as §1

[8] = target: 320 wild-type protein kinases (Homo sapiens, UniProt Q9Y3S1); settings: kinase WNK2, singlicate
From the text: as §1

[9] = target: 320 wild-type protein kinases (Homo sapiens, UniProt Q9BYT3); settings: kinase STK33, singlicate
Sequence of 320 wild-type protein kinases (Homo sapiens, UniProt Q9BYT3) (Q9BYT3 whole entry): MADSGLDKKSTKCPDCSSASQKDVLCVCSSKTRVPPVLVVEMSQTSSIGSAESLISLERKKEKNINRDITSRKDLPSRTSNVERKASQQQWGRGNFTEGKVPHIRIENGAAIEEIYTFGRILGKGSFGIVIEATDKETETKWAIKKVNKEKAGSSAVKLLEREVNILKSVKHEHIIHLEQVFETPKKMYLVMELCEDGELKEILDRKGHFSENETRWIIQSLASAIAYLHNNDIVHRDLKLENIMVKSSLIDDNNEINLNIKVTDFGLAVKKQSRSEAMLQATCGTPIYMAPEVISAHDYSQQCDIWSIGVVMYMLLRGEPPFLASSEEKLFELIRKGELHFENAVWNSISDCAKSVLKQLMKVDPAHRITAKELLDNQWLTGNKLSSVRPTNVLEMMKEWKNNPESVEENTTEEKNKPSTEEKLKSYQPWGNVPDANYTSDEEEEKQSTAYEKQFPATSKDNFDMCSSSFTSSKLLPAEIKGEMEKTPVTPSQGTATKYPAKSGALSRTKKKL
From the text: as §1

[10] = target: 320 wild-type protein kinases (Homo sapiens, UniProt P29597); settings: kinase TYK2, singlicate
From the text: as §1

[11] = target: 320 wild-type protein kinases (Homo sapiens, UniProt Q02779); settings: singlicate
From the text: as §1

[12] = target: 320 wild-type protein kinases (Homo sapiens, UniProt P09619); settings: PDGFR-beta, singlicate
From the text: as §1

[13] = target: 320 wild-type protein kinases (Homo sapiens, UniProt Q9Y2K2); settings: kinase SIK3, singlicate
Sequence of 320 wild-type protein kinases (Homo sapiens, UniProt Q9Y2K2) (Q9Y2K2 whole entry): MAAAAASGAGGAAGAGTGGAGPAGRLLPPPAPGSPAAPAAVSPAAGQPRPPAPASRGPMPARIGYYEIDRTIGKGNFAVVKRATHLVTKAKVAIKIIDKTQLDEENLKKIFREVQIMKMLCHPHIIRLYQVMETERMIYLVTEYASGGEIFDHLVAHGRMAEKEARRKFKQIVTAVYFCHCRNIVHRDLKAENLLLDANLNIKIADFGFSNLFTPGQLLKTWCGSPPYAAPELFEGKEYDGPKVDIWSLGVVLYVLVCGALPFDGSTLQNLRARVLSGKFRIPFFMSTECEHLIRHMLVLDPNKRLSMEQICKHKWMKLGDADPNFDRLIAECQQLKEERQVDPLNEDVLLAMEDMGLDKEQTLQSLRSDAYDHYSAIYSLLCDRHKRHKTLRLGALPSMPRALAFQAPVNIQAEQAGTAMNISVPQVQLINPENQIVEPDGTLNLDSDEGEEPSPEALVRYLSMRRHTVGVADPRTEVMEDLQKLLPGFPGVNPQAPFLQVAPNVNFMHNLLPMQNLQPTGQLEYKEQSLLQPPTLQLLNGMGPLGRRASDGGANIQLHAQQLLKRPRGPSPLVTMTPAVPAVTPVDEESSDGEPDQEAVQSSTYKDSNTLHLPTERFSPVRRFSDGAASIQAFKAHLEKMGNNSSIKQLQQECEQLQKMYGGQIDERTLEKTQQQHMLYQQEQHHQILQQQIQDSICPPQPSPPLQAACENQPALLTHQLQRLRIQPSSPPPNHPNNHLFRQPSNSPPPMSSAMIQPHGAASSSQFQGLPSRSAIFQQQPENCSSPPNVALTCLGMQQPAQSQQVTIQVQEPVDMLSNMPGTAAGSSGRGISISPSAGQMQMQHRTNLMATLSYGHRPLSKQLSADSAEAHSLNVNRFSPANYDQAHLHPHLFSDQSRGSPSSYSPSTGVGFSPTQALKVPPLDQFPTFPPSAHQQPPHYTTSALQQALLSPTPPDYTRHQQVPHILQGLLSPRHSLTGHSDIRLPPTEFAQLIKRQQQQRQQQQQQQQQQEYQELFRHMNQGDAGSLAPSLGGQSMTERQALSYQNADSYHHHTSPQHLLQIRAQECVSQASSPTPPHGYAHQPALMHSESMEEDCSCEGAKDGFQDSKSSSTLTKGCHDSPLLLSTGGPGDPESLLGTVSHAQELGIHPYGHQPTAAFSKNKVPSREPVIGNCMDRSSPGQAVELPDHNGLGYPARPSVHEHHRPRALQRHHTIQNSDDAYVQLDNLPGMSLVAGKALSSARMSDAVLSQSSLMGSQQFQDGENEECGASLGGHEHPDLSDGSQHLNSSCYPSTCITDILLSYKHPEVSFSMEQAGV
From the text: as §1

Sequence of 320 wild-type protein kinases (Homo sapiens, UniProt Q9H0K1) (Q9H0K1 whole entry): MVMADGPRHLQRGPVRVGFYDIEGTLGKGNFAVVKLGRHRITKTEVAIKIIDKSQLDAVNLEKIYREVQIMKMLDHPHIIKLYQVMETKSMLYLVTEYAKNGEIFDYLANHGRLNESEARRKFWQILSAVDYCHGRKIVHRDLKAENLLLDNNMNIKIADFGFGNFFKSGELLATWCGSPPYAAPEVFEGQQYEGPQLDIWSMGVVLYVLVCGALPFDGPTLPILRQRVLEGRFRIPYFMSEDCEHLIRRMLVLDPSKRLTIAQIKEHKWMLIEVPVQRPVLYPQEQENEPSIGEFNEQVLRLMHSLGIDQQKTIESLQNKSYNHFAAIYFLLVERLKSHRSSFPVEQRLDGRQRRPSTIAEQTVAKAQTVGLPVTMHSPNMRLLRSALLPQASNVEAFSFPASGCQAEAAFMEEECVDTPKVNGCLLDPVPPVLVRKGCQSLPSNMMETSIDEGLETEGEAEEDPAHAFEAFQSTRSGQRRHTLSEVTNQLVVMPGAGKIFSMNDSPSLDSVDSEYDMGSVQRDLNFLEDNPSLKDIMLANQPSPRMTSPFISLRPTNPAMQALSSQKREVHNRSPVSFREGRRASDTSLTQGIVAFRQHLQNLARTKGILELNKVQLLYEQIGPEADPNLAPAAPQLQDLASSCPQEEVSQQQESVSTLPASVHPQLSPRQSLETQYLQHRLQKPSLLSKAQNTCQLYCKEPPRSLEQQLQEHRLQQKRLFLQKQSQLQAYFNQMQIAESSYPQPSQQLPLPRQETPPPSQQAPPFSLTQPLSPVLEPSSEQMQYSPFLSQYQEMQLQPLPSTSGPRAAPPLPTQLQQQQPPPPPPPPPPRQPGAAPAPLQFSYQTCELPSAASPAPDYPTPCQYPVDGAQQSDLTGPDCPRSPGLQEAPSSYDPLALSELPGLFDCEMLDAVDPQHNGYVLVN

SMILES	Residual activity, SIK2 ([1]; assay conc. 1.0E-06 M)	Residual activity, SIK2 ([1]; assay conc. 1.0E-07 M)	Residual activity, TAOK2 ([2]; assay conc. 1.0E-06 M)	Residual activity, TAOK2 ([2]; assay conc. 1.0E-07 M)	Residual activity ([3]; MST3, 1.0E-06 M)	Residual activity ([3]; MST3, 1.0E-07 M)	Residual activity ([4]; PAK1, 1.0E-06 M)	Residual activity ([4]; PAK1, 1.0E-07 M)	Residual activity, RPS6KA6 ([5]; assay conc. 1.0E-06 M)	Residual activity, RPS6KA6 ([5]; assay conc. 1.0E-07 M)	Residual activity ([6]; 1.0E-06 M)	Residual activity ([6]; 1.0E-07 M)	Residual activity ([7]; 1.0E-06 M)	Residual activity ([7]; 1.0E-07 M)	Residual activity, WNK2 ([8]; assay conc. 1.0E-06 M)	Residual activity, WNK2 ([8]; assay conc. 1.0E-07 M)	Residual activity, STK33 ([9]; assay conc. 1.0E-06 M)	Residual activity, STK33 ([9]; assay conc. 1.0E-07 M)	Residual activity, TYK2 ([10]; assay conc. 1.0E-06 M)	Residual activity, TYK2 ([10]; assay conc. 1.0E-07 M)	also measured
C#Cc1cc(Nc2ncnc3cc(I)ccc23)ccc1Cl [Compound 41]	83 % of control	92 % of control	96 % of control	110 % of control	104 % of control	116 % of control	92 % of control	87 % of control	94 % of control	103 % of control	89 % of control	108 % of control	92 % of control	91 % of control	82 % of control	108 % of control	89 % of control	98 % of control	94 % of control	101 % of control	Residual activity ([11]; MAP3K10, 1.0E-06 M): 93 % of control; Residual activity ([11]; MAP3K10, 1.0E-07 M): 102 % of control; Residual activity ([12]; 1.0E-06 M): 98 % of control; Residual activity ([12]; 1.0E-07 M): 114 % of control; Residual activity, SIK3 ([13]; assay conc. 1.0E-06 M): 72 % of control; Residual activity, SIK3 ([13]; assay conc. 1.0E-07 M): 77 % of control
C#Cc1cc(Nc2ncnc3cc(OC)c(OC)cc23)ccc1Cl [Compound 45]	67 % of control	97 % of control	106 % of control	109 % of control	94 % of control	93 % of control	95 % of control	91 % of control	70 % of control	93 % of control	87 % of control	101 % of control	95 % of control	97 % of control	92 % of control	97 % of control	76 % of control	100 % of control	114 % of control	96 % of control	Residual activity ([11]; MAP3K10, 1.0E-06 M): 86 % of control; Residual activity ([11]; MAP3K10, 1.0E-07 M): 92 % of control; Residual activity ([12]; 1.0E-06 M): 95 % of control; Residual activity ([12]; 1.0E-07 M): 107 % of control; Residual activity, SIK3 ([13]; assay conc. 1.0E-06 M): 58 % of control; Residual activity, SIK3 ([13]; assay conc. 1.0E-07 M): 83 % of control
